Results as given in ChEMBL document CHEMBL5120967, “Development of an Orally Active Small-Molecule Inhibitor of Receptor Activator of Nuclear Factor-κB Ligand” (J Med Chem, 2022).
Calls of active or inactive are those of the source. The calls are words filed in the database; no cut-off is given here.

How the values were obtained:
[1] = Anti-osteoporosis activity C57/BL6 mouse bone marrow macrophage cells assessed as inhibition of RANKL-induced osteoclastogenesis at 1 uM measured after 5 to 6 days in presence of M-CSF and RNKL by TRAP staining microscopic analysis; type: functional, BMDM; design: scale not given: the % may be the effect or the level left; settings: time 5-6 day
[2] = Anti-osteoporosis activity C57/BL6 mouse bone marrow macrophage cells assessed as inhibition of RANKL-induced osteoclastogenesis at 0.1 uM measured after 5 to 6 days in presence of M-CSF and RNKL by TRAP staining microscopic analysis; type: functional, BMDM; design: scale not given: the % may be the effect or the level left; settings: time 5-6 day
BMDM [3] = test: Cytotoxicity against C57/BL6 mouse bone marrow macrophage cells assessed as reduction in cell viability at 10 uM incubated for 3 days by CCK8 assay; type: toxicity, cell-based; settings: 72 h, time 3 day
BMDM [4] = test: Anti-osteoporosis activity C57/BL6 mouse bone marrow macrophage cells assessed as inhibition of RANKL-induced osteoclastogenesis and measured after 5 to 6 days in presence of M-CSF by TRAP staining based assay; type: functional, cell-based; settings: dose 0.1-5 µM, time 5-6 day, DDE = dose-dependent effect
BMDM [5] = test: Cytotoxicity against C57/BL6 mouse bone marrow macrophage cells at 5 uM measured after 3 days in presence of M-CSF by CCK-8 assay; type: toxicity, cell-based; settings: 72 h, time 3 day
BMDM [6] = test: Anti-osteoporosis activity C57/BL6 mouse bone marrow macrophage cells assessed as inhibition of RANKL-induced F-actin levels upto 5 uM measured after 5 to 6 days in presence of M-CSF by DAPI staining analysis; type: functional, cell-based; settings: time 5-6 day
BMDM [7] = test: Anti-osteoporosis activity C57/BL6 mouse bone marrow macrophage cells assessed as inhibition of RANKL-induced F-actin size upto 5 uM measured after 5 to 6 days in presence of M-CSF by DAPI staining analysis; type: functional, cell-based; settings: time 5-6 day
[8] = Anti-osteoporosis activity C57/BL6 mouse bone marrow macrophage cells assessed as inhibition of RANKL-induced osteoclastogenesis measured after 5 to 6 days in presence of M-CSF by DAPI staining analysis; type: functional, cell-based; settings: bmdm
BMDM [9] = test: Inhibition of RANKL-induced TRAP in mRNA expression in C57/BL6 mouse bone marrow macrophage cells upto 5 uM measured after 3 days by qRT-PCR analysis; type: functional, cell-based; settings: time 3.0 day
BMDM [10] = test: Inhibition of RANKL-induced Cathepsin K in mRNA expression in C57/BL6 mouse bone marrow macrophage cells upto 5 uM measured after 3 days by qRT-PCR analysis; type: functional, cell-based; settings: time 3.0 day
BMDM [11] = test: Inhibition of RANKL-induced c-fos in mRNA expression in C57/BL6 mouse bone marrow macrophage cells upto 5 uM measured after 3 days by qRT-PCR analysis; type: functional, cell-based; settings: time 3.0 day
BMDM [12] = test: Inhibition of RANKL-induced NFATc1 in mRNA expression in C57/BL6 mouse bone marrow macrophage cells upto 5 uM measured after 3 days by qRT-PCR analysis; type: functional, cell-based; settings: time 3.0 day
[13] = biological target: T1, Tumor necrosis factor ligand superfamily member 11 (Homo sapiens, UniProt O14788); test: Binding affinity to human RANKL assessed as dissociation constant by surface plasmon resonance method
T1 sequence (O14788 whole entry): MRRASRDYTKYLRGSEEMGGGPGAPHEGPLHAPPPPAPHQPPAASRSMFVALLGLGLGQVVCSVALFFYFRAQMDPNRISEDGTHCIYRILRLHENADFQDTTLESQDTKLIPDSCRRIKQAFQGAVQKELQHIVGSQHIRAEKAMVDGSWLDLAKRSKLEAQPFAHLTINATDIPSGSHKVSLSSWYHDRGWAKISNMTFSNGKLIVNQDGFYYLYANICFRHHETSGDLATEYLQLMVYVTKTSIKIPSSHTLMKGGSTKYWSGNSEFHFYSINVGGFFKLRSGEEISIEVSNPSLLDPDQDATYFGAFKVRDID

BMDM [14] = test: Inhibition of RANKL-induced c-FOS protein expression in C57/BL6 mouse bone marrow macrophage cells upto 10 uM measured for 3 days in presence of M-CSF and RANKL by Western blot analysis; type: functional, cell-based; settings: time 3.0 day, DDE = dose-dependent effect
BMDM [15] = test: Inhibition of RANKL-induced NFATC1 protein expression in C57/BL6 mouse bone marrow macrophage cells upto 10 uM measured for 3 days in presence of M-CSF and RANKL by Western blot analysis; type: functional, cell-based; settings: time 3.0 day, DDE = dose-dependent effect
[16] = AUC(0 to t) in OVX-induced C57/BL6 mouse model at 3 mg/kg, iv; type: ADME, organism-based; design: dose 3 mg/kg, route iv; settings: female, in vivo
[17] = Half life in OVX-induced C57/BL6 mouse model at 3 mg/kg, iv; type: ADME, organism-based; settings: female, in vivo
[18] = Clearance in OVX-induced C57/BL6 mouse model at 3 mg/kg, iv; type: ADME, organism-based; settings: female, in vivo
[19] = Oral bioavailability in OVX-induced C57/BL6 mouse model; type: ADME, organism-based; settings: female, in vivo
Mus musculus [20] = test: Anti-osteoporosis activity in OVX-induced C57/BL6 mouse model assessed as increase in bone mineral density by measuring recovery at 60 mg/kg, po once per day for 28 days by microCT imaging analysis; type: functional; settings: time 28 day
[21] = AUC(0 to t) in OVX-induced C57/BL6 mouse model at 5 mg/kg, po; type: ADME, organism-based; design: dose 5 mg/kg, route po; settings: female, in vivo
[22] = Cmax in OVX-induced C57/BL6 mouse model at 5 mg/kg, po; type: ADME, organism-based; design: dose 5 mg/kg, route po; settings: female, in vivo
[23] = Half life in OVX-induced C57/BL6 mouse model at 5 mg/kg, po; type: ADME, organism-based; settings: female, in vivo
Mus musculus [24] = test: Anti-osteoporosis activity in ligature-induced periodontal BALB/c mouse model assessed as decrease in bone loss at 20 mg/kg, ip measured for 4 weeks by microCT imaging analysis; type: functional, organism-based
Mus musculus [25] = test: Anti-osteoporosis activity in ligature-induced periodontal BALB/c mouse model assessed as increase in alveolar bone mass at 20 mg/kg, ip measured for 4 weeks by microCT imaging analysis; type: functional
Mus musculus [26] = test: Anti-osteoporosis activity in ligature-induced periodontal BALB/c mouse model assessed as increase in bone volume at 20 mg/kg, ip measured for 4 weeks by microCT imaging analysis; type: functional
Mus musculus [27] = test: Anti-osteoporosis activity in ligature-induced periodontal BALB/c mouse model assessed as increase in vertical bone at 20 mg/kg, ip measured for 4 weeks by microCT imaging analysis; type: functional

SMILES: Cc1cccc(C)c1NC(=O)c1cc2c([nH]c3ccccc32)c(CCc2ccccc2)n1
- Activity [1]: 89.3%
- Activity [2]: 45.9%
- Cell viability (BMDM [3]): > 100%
- Activity (BMDM [4]): Dde
- Activity (BMDM [5]): Non-Toxic
- Activity (BMDM [6]): Active
- Activity (BMDM [7]): Active
- IC50 [8]: 520 nM
- inhibition (BMDM [9]): Active
- inhibition (BMDM [10]): Active
- inhibition (BMDM [11]): Active
- inhibition (BMDM [12]): Active
- Kd [13]: 5030 nM
- inhibition (BMDM [14]): Dde
- inhibition (BMDM [15]): Dde
- AUC(0-t) [16]: 2710 ng·h/mL
- half-life [17]: 5.1 h
- clearance [18]: 18.6 mL/min/kg
- bioavailability [19]: 4.9%
- Activity (Mus musculus [20]): 23.4%
- AUC(0-t) [21]: 223 ng·h/mL
- Cmax [22]: 48.1 ng/mL
- half-life [23]: 2 h
- Activity (Mus musculus [24]): Active
- Activity (Mus musculus [25]): 60.7%
- Activity (Mus musculus [26]): 51.9%
- Activity (Mus musculus [27]): 67%
